Experimental data: publication PMC5954133, “Functional Characterization of a Small Alarmone Hydrolase in Corynebacterium glutamicum” (Frontiers in Microbiology, 2018)

Target: T1, RelSCg (Corynebacterium glutamicum, UniProt Q8NNR8)
T1 construct: gene Cgl2119; full-length; expressed in E. coli ER2566
T1 sequence (Q8NNR8 1-341): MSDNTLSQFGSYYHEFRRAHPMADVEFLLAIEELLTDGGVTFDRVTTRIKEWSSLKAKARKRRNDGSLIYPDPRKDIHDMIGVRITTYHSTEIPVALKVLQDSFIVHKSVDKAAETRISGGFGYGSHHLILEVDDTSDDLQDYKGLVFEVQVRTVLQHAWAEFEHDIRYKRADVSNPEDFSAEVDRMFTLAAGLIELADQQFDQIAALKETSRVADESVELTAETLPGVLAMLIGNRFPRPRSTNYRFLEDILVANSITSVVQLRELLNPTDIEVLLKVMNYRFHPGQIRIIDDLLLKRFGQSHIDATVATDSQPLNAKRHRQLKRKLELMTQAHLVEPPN
Assay: preparative pyrophosphorylation, product identified by HPLC-MS
Type: biochemical
Conditions: 12 mM ATP, 10 mM MgCl2, 50 mM Tris-HCl pH 8, 16 h

SMILES	preparative pyrophosphorylation, product identified by HPLC-MS
Nc1nc2c(ncn2[C@@H]2O[C@H](COP(=O)(O)OP(=O)(O)O)[C@@H](O)[C@H]2O)c(=O)[nH]1 [GDP]	produced by RelSCg-catalyzed pyrophosphorylation of GMP, GDP or GTP
Nc1nc2c(ncn2[C@@H]2O[C@H](COP(=O)(O)O)[C@@H](O)[C@H]2O)c(=O)[nH]1 [GMP]	produced by RelSCg-catalyzed pyrophosphorylation of GMP, GDP or GTP
